Experimental findings from PubChem BioAssay (NCI) are described below.

Test systems include NCI-H23 lung; UACC-62 melanoma; SK-OV-3 ovarian; OVCAR-5 ovarian; ACHN renal; NCI-H226 lung; TK-10 renal; RXF 393 renal; MDA-MB-231 breast; SK-MEL-2 melanoma.
Holding throughout (experiment): inhibition of tumour cell growth, NCI panel, 48 h

The structures appear in SMILES notation.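 Test compounds were applied to cells in 96-well plates for 48 hours at 5 doses. Abbreviation: GI50, concentration required for 50% inhibition of growth. The concentration for full growth arrest is given as TGI.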

Take `Cc1ccc(C=C2C(Cl)=C(Cl)C(Cl)=C2Cl)cc1`: the GI50 was 0.533 µM in the assay on NCI-H23 lung; 0.784 µM in the assay on UACC-62 melanoma; 2.03 µM with SK-OV-3 ovarian; 0.978 µM in the assay on OVCAR-5 ovarian; 0.7 µM with ACHN renal; 1.49 µM in the assay with NCI-H226 lung. Also, the GI50 is 0.972 µM with TK-10 renal, 0.308 µM in the assay on RXF 393 renal, 1.22 µM with MDA-MB-231 breast and 1.9 µM in the assay with SK-MEL-2 melanoma. Further, the TGI in the assay on NCI-H23 lung was determined as 2.5 µM; with UACC-62 melanoma it was 2.74 µM; in the assay with SK-OV-3 ovarian, 4.62 µM; in the assay with OVCAR-5 ovarian, 2.49 µM; in the assay with ACHN renal it was 1.94 µM; with NCI-H226 lung, 3.22 µM. Besides, the TGI worked out at 2.55 µM in the assay with TK-10 renal, 0.906 µM in the assay on RXF 393 renal, 4.76 µM in the assay with MDA-MB-231 breast and 4.87 µM in the assay on SK-MEL-2 melanoma.

In the case of `COc1ccc(/C=C2\COc3ccc(O)c(O)c3C2=O)c(OC)c1OC`, the GI50 was 3.22 µM in the assay with NCI-H23 lung; 1.88 µM in the assay with UACC-62 melanoma; 3.24 µM in the assay with SK-OV-3 ovarian; 3.64 µM in the assay with OVCAR-5 ovarian; 1.78 µM with ACHN renal; 2.66 µM in the assay on NCI-H226 lung. The GI50 with TK-10 renal is 4.03 µM; in the assay with RXF 393 renal, 1.87 µM; in the assay on MDA-MB-231 breast it was 2.22 µM; with SK-MEL-2 melanoma, 4.7 µM. Moreover, the TGI in the assay on NCI-H23 lung is 14.5 µM; in the assay with UACC-62 melanoma, 3.88 µM; with SK-OV-3 ovarian it was greater than 100 µM; in the assay on OVCAR-5 ovarian it was 12.8 µM; in the assay with ACHN renal it was 3.96 µM; with NCI-H226 lung it was 7.25 µM. Also, the TGI in the assay with TK-10 renal was found to be 23.3 µM; in the assay on RXF 393 renal, 3.54 µM; in the assay on MDA-MB-231 breast, 7.43 µM; in the assay with SK-MEL-2 melanoma, 31.1 µM.

As to `Cn1cc(C2=C(c3cn(-c4ccccc4)c4ccccc34)C(=O)NC2=O)c2ccccc21`, the GI50 in the assay with NCI-H23 lung was 18.8 µM; with UACC-62 melanoma it was 16.3 µM; in the assay with SK-OV-3 ovarian, greater than 25 µM; with OVCAR-5 ovarian, greater than 25 µM; in the assay on ACHN renal it was 17.3 µM; in the assay with NCI-H226 lung, greater than 25 µM. Further, the GI50 in the assay with TK-10 renal was greater than 25 µM; in the assay with RXF 393 renal, 10.2 µM; in the assay on MDA-MB-231 breast, greater than 23.3 µM; in the assay with SK-MEL-2 melanoma, 9.14 µM. For the same molecule, the TGI in the assay with NCI-H23 lung, with UACC-62 melanoma, in the assay on SK-OV-3 ovarian, with OVCAR-5 ovarian, in the assay on ACHN renal and with NCI-H226 lung was greater than 25 µM throughout. The TGI with TK-10 renal, in the assay on RXF 393 renal, with MDA-MB-231 breast and with SK-MEL-2 melanoma was greater than 25 µM in each case.

Take `COC(=O)c1cc2oc(/C=C3/SC(=S)N(N)C3=O)cc2n1Cc1ccccc1`: the GI50 in the assay with NCI-H23 lung was 4.46 µM; in the assay with UACC-62 melanoma, 10.6 µM; in the assay on SK-OV-3 ovarian, 4.25 µM; with OVCAR-5 ovarian it was 4.65 µM; in the assay with ACHN renal, 7.08 µM; in the assay with NCI-H226 lung, 13.5 µM. Besides, the GI50 in the assay on TK-10 renal is 3.2 µM; in the assay with RXF 393 renal, 2.01 µM; in the assay on MDA-MB-231 breast, 8.66 µM; in the assay with SK-MEL-2 melanoma it was 6.82 µM. Besides, the TGI with NCI-H23 lung came to 21.2 µM; in the assay with UACC-62 melanoma, 36.1 µM; in the assay on SK-OV-3 ovarian it was 20 µM; in the assay with OVCAR-5 ovarian, 20.7 µM; with ACHN renal, 25.8 µM; in the assay on NCI-H226 lung it was 26.8 µM. Further, the TGI with TK-10 renal is 11.8 µM; in the assay on RXF 393 renal it was 12.2 µM; with MDA-MB-231 breast it was 26 µM; in the assay with SK-MEL-2 melanoma, 18.7 µM.

Turning to `O=c1cnnc(N/N=C/c2ccccc2O)[nH]1`, the GI50 in the assay on NCI-H23 lung was 1.21 µM; in the assay with UACC-62 melanoma, 1.31 µM; with SK-OV-3 ovarian, 3.6 µM; in the assay on OVCAR-5 ovarian, 1.22 µM; in the assay on ACHN renal it was 1.19 µM; in the assay with NCI-H226 lung, 1.63 µM. Besides, the GI50 with TK-10 renal is 8.26 µM; with RXF 393 renal, 5.16 µM; in the assay with MDA-MB-231 breast, 4.37 µM; in the assay on SK-MEL-2 melanoma it was 21 µM. Besides, the TGI with NCI-H23 lung was greater than 100 µM; with UACC-62 melanoma it was 7.88 µM; in the assay with SK-OV-3 ovarian, greater than 100 µM; in the assay with OVCAR-5 ovarian, greater than 100 µM; with ACHN renal, greater than 100 µM; in the assay on NCI-H226 lung, 51.7 µM. The TGI is greater than 100 µM in the assay with TK-10 renal, 37.7 µM in the assay on RXF 393 renal, greater than 100 µM with MDA-MB-231 breast and greater than 100 µM with SK-MEL-2 melanoma.

On to `Cn1cc(-c2nc(-c3c[nH]c4ncccc34)cs2)c2ccccc21`, for which the GI50 in the assay on NCI-H23 lung was 4.49 µM; in the assay with UACC-62 melanoma, 30.5 µM; in the assay with SK-OV-3 ovarian, 65.3 µM; with OVCAR-5 ovarian, 0.762 µM; with ACHN renal, 31.7 µM; in the assay with NCI-H226 lung, 14.2 µM. The GI50 in the assay with TK-10 renal is 5.78 µM; with RXF 393 renal, 17.9 µM; with MDA-MB-231 breast it was 1.03 µM; in the assay on SK-MEL-2 melanoma, 54.7 µM. Moreover, the TGI in the assay with NCI-H23 lung is greater than 100 µM; in the assay on UACC-62 melanoma it was greater than 100 µM; with SK-OV-3 ovarian, greater than 100 µM; in the assay on OVCAR-5 ovarian, 73.9 µM; in the assay on ACHN renal, greater than 100 µM; with NCI-H226 lung, greater than 100 µM. In addition, the TGI was 78.3 µM with TK-10 renal, greater than 100 µM in the assay on RXF 393 renal, 63.8 µM with MDA-MB-231 breast and greater than 100 µM in the assay on SK-MEL-2 melanoma.
